Test results reported in paper PMC13089524, “Development of SYK NanoBRET cellular target engagement assays for gain–of–function variants” (Frontiers in chemical biology, 2024).
Each block holds one compound with its values, some of them ahead of it.

Tests used:
SYK(S550F)-NL [1] = target: T1, SYK(S550F)-NL (Homo sapiens, UniProt P43405, S550F); assay: NanoBRET cellular target engagement assay in intact live HEK293 cells, SYK(S550F)-NL; type: cell-based
T1 construct: host or cells: HEK293
Procedure: (§1) NL orientations used in the respective assays are indicated. […] Plates were incubated for 25 min at room temperature if digitonin was added or for 2 h at 37°C in 5% CO2 for the intact cell NanoBRET assay. […] For intact live cells in a 96-well plate, the 3X stock solution was prepared with 30 μL of NanoBRET NanoGlo substrate, 10 μL of extracellular NanoLuc inhibitor, and 4,960 μL of Opti-MEM without phenol red. For digitonin permeabilized live cells in a 96-well plate, the 3X stock solution was prepared with 30 μL of NanoBRET NanoGlo substrate and 4,970 μL of Opti-MEM without phenol red. Raw milliBRET units (mBU) were read on a GloMax Discover system (Promega) with a donor emission wavelength of 450 nm and an acceptor emission wavelength of 600 nm. mBU were calculated by dividing the acceptor emission values (600 nm) by the donor emission values (450 nm). For NanoBRET studies with SYK, background corrected mBU were calculated by subtracting the no tracer wells from the tracer-containing wells and multiplying by 1,000.
(§2) MRL-SYKi was used to compete away the NanoBRET signal produced with tracer 8. […] Tracer 8 was prepared in DMSO and DMEM without phenol red in 11-point dose-response format with 3 μM as the top concentration, with a final assay plate concentration of 1% DMSO. 10X stock solutions of MRL-SYKi were prepared from 10 mM DMSO stock solution with room temperature Opti-MEM without phenol red, for final assay plate concentrations of 10 μM. 10 μL of 8 (10X) was added to each well, with the exception of the no tracer control wells, and 10 μL of 10X solutions of MRL-SYKi was added to wells for tracer competition. One biological replicate was plotted in GraphPad Prism with [inhibitor] vs response (three parameters).
(§3) MRL-SYKi was tested in 11-point dose–response format with a top concentration of 10 μM. […] The final assay plate concentrations included 1% DMSO. 5 μL of 8 (20X) was added to each well, except the no tracer control wells, and 10 μL of 10X threefold diluted solutions of MRL-SYKi was added to wells. Two biological replicates were plotted in GraphPad Prism with log[inhibitor] vs response (three parameters) with the error bars indicating standard deviation.
(§4) Compounds were tested in 11-point dose–response format with a top concentration of 10 μM. Data are reported as IC50 ± standard error mean (SEM). One biological replicate was plotted in GraphPad Prism with log[inhibitor] vs response (three parameters), the three IC50’s were averaged and the SEM was calculated.

JAK1 = conditions: ref Ma et al., 2015; Guo et al., 2017; cited from earlier work
SYK(P342T)-NL [2] = target: T2, SYK(P342T)-NL (Homo sapiens, UniProt P43405, P342T); assay: NanoBRET cellular target engagement assay in intact live HEK293 cells, SYK(P342T)-NL; type: cell-based
T2 construct: host or cells: HEK293
Procedure: as §1, §2, §3, §4

TNK1 = conditions: only off-target kinase bound; ref Sharman et al., 2015; Cooper et al., 2023; cited from earlier work
SYK(P342T)-NL [3] = target: T2, SYK(P342T)-NL; assay: NanoBRET assay in digitonin permeabilized HEK293 cells, SYK(P342T)-NL; type: cell-based; conditions: relative to MRL-SYKi (20 μM) treated cells, single experiment, read-out: EC50 of tracer, SYK(variant)-NL P342T
Procedure: (§5) We performed NanoBRET tracer optimization to determine if the SYK tracers could effectively generate a BRET signal. […] To enable the NanoBRET assay using tracer 8 with cells permeabilized by digitonin, a tracer dose–response study was performed for each SYK(GoF) variant and SYK(WT) (Figure 3A), followed by tracer titration experiments (Figure 3B; Supplementary Figure S3). […] Initially, we determined the EC50 of tracer 8 for each SYK(GoF) variant and SYK(WT). […] Plates were incubated for 25 min at room temperature if digitonin was added or for 2 h at 37°C in 5% CO2 for the intact cell NanoBRET assay. […] For intact live cells in a 96-well plate, the 3X stock solution was prepared with 30 μL of NanoBRET NanoGlo substrate, 10 μL of extracellular NanoLuc inhibitor, and 4,960 μL of Opti-MEM without phenol red. […] Raw milliBRET units (mBU) were read on a GloMax Discover system (Promega) with a donor emission wavelength of 450 nm and an acceptor emission wavelength of 600 nm. mBU were calculated by dividing the acceptor emission values (600 nm) by the donor emission values (450 nm). For NanoBRET studies with SYK, background corrected mBU were calculated by subtracting the no tracer wells from the tracer-containing wells and multiplying by 1,000. […]

SYK(WT)-NL = target: T3, SYK(WT)-NL (Homo sapiens, UniProt P43405); assay: NanoBRET assay in digitonin permeabilized HEK293 cells, SYK(WT)-NL; type: cell-based
T3 construct: SYK tracers enable BRET with full-length SYK(WT) after digitonin permeabilization; host or cells: HEK293
Procedure: We performed NanoBRET tracer optimization to determine if the SYK tracers could effectively generate a BRET signal. […] To enable the NanoBRET assay using tracer 8 with cells permeabilized by digitonin, a tracer dose–response study was performed for each SYK(GoF) variant and SYK(WT) (Figure 3A), followed by tracer titration experiments (Figure 3B; Supplementary Figure S3). […] Initially, we determined the EC50 of tracer 8 for each SYK(GoF) variant and SYK(WT). […] Plates were incubated for 25 min at room temperature if digitonin was added or for 2 h at 37°C in 5% CO2 for the intact cell NanoBRET assay. […] For intact live cells in a 96-well plate, the 3X stock solution was prepared with 30 μL of NanoBRET NanoGlo substrate, 10 μL of extracellular NanoLuc inhibitor, and 4,960 μL of Opti-MEM without phenol red. For digitonin permeabilized live cells in a 96-well plate, the 3X stock solution was prepared with 30 μL of NanoBRET NanoGlo substrate and 4,970 μL of Opti-MEM without phenol red. Raw milliBRET units (mBU) were read on a GloMax Discover system (Promega) with a donor emission wavelength of 450 nm and an acceptor emission wavelength of 600 nm. mBU were calculated by dividing the acceptor emission values (600 nm) by the donor emission values (450 nm). For NanoBRET studies with SYK, background corrected mBU were calculated by subtracting the no tracer wells from the tracer-containing wells and multiplying by 1,000.
HEK293 cells were transfected with constructs of SYK(WT) or SYK(KD) tagged with NL on the C- or N-terminus and SYK GoF variants tagged with NL on the C-terminus. Tracer 8 (20X) was prepared from a 400 μM stock solution in DMSO with tracer dilution buffer (Promega, #N291B) and 20% DMSO, with a final assay plate concentration of 1% DMSO. 5 μL of 8 (20X) was added to each well, with exception of the no tracer control wells, with final plate concentrations of 0.5, 1, and 2 μM. 10 μL of digitonin (Fisher, 10X, 500 μg/mL) was added to specific wells to permeabilize the cells. The 10X digitonin stock was prepared by diluting a 40X DMSO solution of digitonin with room temperature Opti-MEM without phenol red, for a final assay plate concentration of 1% DMSO. SYK inhibitor stock solutions of MRL-SYKi (10X) were prepared from 10 mM DMSO stock solutions with room temperature Opti-MEM without phenol red, for final assay plate concentrations of 10 μM. Plates were incubated for 25 min at room temperature if digitonin was added or for 2 h at 37°C in 5% CO2 for the intact cell NanoBRET assay. Two technical replicates were plotted in a bar chart with the standard deviation represented as error bars on Graphpad Prism.

SYK(M450I)-NL = target: T4, SYK(M450I)-NL (Homo sapiens, UniProt P43405, M450I); assay: NanoBRET assay in digitonin permeabilized HEK293 cells, SYK(M450I)-NL; type: cell-based; conditions: relative to MRL-SYKi (20 μM) treated cells, single experiment, read-out: EC50 of tracer, SYK(variant)-NL M450I
T4 construct: host or cells: HEK293
Procedure: as §5

SYK(S550Y)-NL [4] = target: T5, SYK(S550Y)-NL (Homo sapiens, UniProt P43405, S550Y); assay: NanoBRET cellular target engagement assay in intact live HEK293 cells, SYK(S550Y)-NL; type: cell-based; conditions: intact cells, ± 10 μM MRL-SYKi, single experiment; read-out: cellular EC50 of the tracer, SYK(S550Y)-NL
T5 construct: host or cells: HEK293
Procedure: as §1, §2, §3, §4

SYK(S550F)-NL [5] = target: T1, SYK(S550F)-NL; assay: NanoBRET assay in digitonin permeabilized HEK293 cells, SYK(S550F)-NL; type: cell-based; conditions: relative to MRL-SYKi (20 μM) treated cells, single experiment, read-out: EC50 of tracer, SYK(variant)-NL S550F
Procedure: as §5

SYK = target: T6, SYK (Homo sapiens, UniProt P43405); assay: Eurofins DiscoverX SYK enzymatic radiometric assay; type: biochemical
T6 construct: purchased Eurofins DiscoverX (contract assay service)
Excerpt: Eurofins kinase enzymatic radiometric assays were executed at the Km value for ATP in dose–response (9-pt curve) format for SYK, included in Table 1 as enzymatic IC50 values.

SYK(WT) = target: T7, SYK(WT) (Homo sapiens, UniProt P43405); assay: PhosphoSens SOX peptide kinase activity assay, SYK(WT); type: biochemical; conditions: dose-response, purified protein
T7 construct: Full-length human SYK(WT) DNA was custom synthesized (GenScript); 6His (N, cleaved yes); GST (N, cleaved yes); made in house; host or cells: Sf9 insect cells (baculovirus, pFastbac1)
Excerpt: Full-length human SYK(WT) DNA was custom synthesized (GenScript) as a codon optimized form for expression in Sf9 cells. N-terminal 6His and GST tags were introduced, followed by a TEV protease cleavage site, and cloned into pFastbac1. SYK(S550F) and SYK(P342T) were generated by site-directed mutagenesis of SYK(WT) using the NEB Q5 site directed mutagenesis kit. Plasmids were transformed into E. coli DH10Bac for bacmid generation. Recombinant bacmid DNA was used to transfect Sf9 cells to generate viral stocks. For large-scale protein production, 2 L of Sf9 cells at 2 × 10^6 cells/ml were infected with a P2 virus stock and allowed to incubate with shaking for 3 days at 27°C. Harvested cells were lysed in 200 mL lysis buffer containing 50 mM HEPES (pH 7.5), 500 mM NaCl, 10 mM imidazole, 10% glycerol, 1 mM TCEP. […]
SYK kinase activity was evaluated using a continuous kinase assay using a PhosphoSens (AssayQuant) SOX peptide, according to the protocol provided, with modifications. […] Fluorescence readings were taken at 30-s intervals for a duration ranging from 30 min to an hour, using a PheraStar FX device set to kinetic mode, employing an appropriate optics module (FI 350 460). The data was represented as a plot of relative fluorescence over time, deducting the fluorescence of control reactions (which lacked kinase) from the fluorescence recorded after introducing the kinase. […]

SYK(A353T)-NL = target: T8, SYK(A353T)-NL (Homo sapiens, UniProt P43405, A353T); assay: NanoBRET assay in digitonin permeabilized HEK293 cells, SYK(A353T)-NL; type: cell-based; conditions: relative to MRL-SYKi (20 μM) treated cells, single experiment, read-out: EC50 of tracer, SYK(variant)-NL A353T
T8 construct: host or cells: HEK293
Procedure: as §5

SYK(S550Y)-NL [6] = target: T5, SYK(S550Y)-NL; assay: NanoBRET assay in digitonin permeabilized HEK293 cells, SYK(S550Y)-NL; type: cell-based; conditions: relative to MRL-SYKi (20 μM) treated cells, single experiment, read-out: EC50 of tracer, SYK(variant)-NL S550Y
Procedure: as §5

[7] = Solubility of tracer in NanoBRET assay medium; type: physicochemical; conditions: dose-response top concentration 3 μM
[8] = tested on: pSYK(Y525/526) in SW480 cells stably expressing SYK(S550Y); conditions: ref Wang et al. (2021); cited from earlier work

SMILES: CCS(=O)(=O)N1CCN(c2ccc(Nc3ncc(C(N)=O)c(NC4CC4)n3)cc2)CC1 [Cerdulatinib]
IC50 (SYK(S550F)-NL [1]; intact HEK293 cells, 125 nM tracer 8, average of triplicate ± SEM, read-out: SYK(S550F) IC50): 170 ± 21 nM | IC50 (JAK1): 12 nM | IC50 (SYK(P342T)-NL [2]; intact HEK293 cells, 125 nM tracer 8, average of triplicate ± SEM, read-out: SYK(P342T) IC50): 360 ± 36 nM

SMILES: c1cn2cc(-c3ccc4cn[nH]c4c3)nc(Nc3ccc(N4CCOCC4)cc3)c2n1 [Entospletinib]
Kd (TNK1): < 100 nM

EC50 (SYK(S550F)-NL [1]; intact cells, ± 10 μM MRL-SYKi, single experiment, read-out: cellular EC50 of the tracer, SYK(S550F)-NL): 273 nM | EC50 (SYK(P342T)-NL [3]): 9 nM | BRET signal (background subtracted) (SYK(WT)-NL; C-terminal NL fusion, tracer 0.5, 1, 2 μM): approximately 15 mBU | EC50 (SYK(WT)-NL; relative to MRL-SYKi (20 μM) treated cells, single experiment, read-out: EC50 of tracer, SYK(variant)-NL WT): 39 nM | EC50 (SYK(M450I)-NL): 65 nM | EC50 (SYK(S550Y)-NL [4]): 159 nM | EC50 (SYK(S550F)-NL [5]): 7 nM | IC50 (SYK; Km value for ATP, 9-pt dose-response): 110 nM | decrease in potency compared to the parent inhibitor MRL-SYKi (SYK; ratio of enzymatic IC50): 3.6 fold | effect on SYK(WT) catalytic activity (SYK(WT)): inhibits SYK(WT) catalytic activity | EC50 (SYK(A353T)-NL): 24 nM | EC50 (SYK(S550Y)-NL [6]): 8 nM | solubility [7]: solubility issues at >3 μM | EC50 (SYK(P342T)-NL [2]; intact cells, ± 10 μM MRL-SYKi, single experiment, read-out: cellular EC50 of the tracer, SYK(P342T)-NL): 280 nM
SMILES: Cc1cc(Nc2nccc(C)n2)cc(-c2cnc([C@@]3(O)CC[C@H](C(=O)NCCCNC(=O)CCc4ccc5n4[B-](F)(F)[N+]4=C(c6ccc[nH]6)C=CC4=C5)C(C)(C)C3)s2)c1 [Tracer 8]

SMILES: COc1cc(Nc2ncc(F)c(Nc3ccc4c(n3)NC(=O)C(C)(C)O4)n2)cc(OC)c1OC [Tracer R406]
S550Y phosphorylation levels [8]: decrease S550Y phosphorylation levels
